Like-named read-outs stand apart in the source and are kept apart here.
What was measured:
[1] = test system: S. aureus Smith (ATCC 13709); test: Mouse systemic infection (septicemia) model, S. aureus Smith; assay type: in vivo; settings: Staphylococcus aureus, CD-1 female mice; for responders at 3 mg/kg: ATCC13709, iv, IV 3 mg/kg one hour post infection, read-out: SA Smith septicemia survival IV (3 mg/kg); for responders at 3 mg/kg / responders at 30 mg/kg: 48 h, survival at 48 hours; for responders at 30 mg/kg: ATCC13709, po, PO 30 mg/kg one hour post infection, read-out: SA Smith septicemia survival PO (30 mg/kg); for ED50: ATCC13709, dose that prevents 50% of the mice from death, 48 hours
Summary of the method: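 Female CD-1 mice (18-22 g) infected IP with an inoculum lethal to all within 24–48 h. Compound given 1 h post-infection IV ([…]) or PO ([…]), typically six mice per dose group; survival followed for 48 h and PD50 (mg/kg) derived from 48 h survival.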

[2] = test system: tetracycline-resistant tet(M) S. pneumoniae strain SP160; test: Neutropenic respiratory infection model for S. pneumoniae (murine lung infection); assay type: in vivo; settings: neutropenic BALB/c mice, SP160 intranasal, 30 mg/kg orally at 2 and 12 hours post-infection, lung CFU at 24 hours
Procedure: Neutropenic Respiratory Infection Models for S. pneumoniae
Compounds were tested in a neutropenic BALB/c murine model of lung infection challenged with tetracycline-resistant tet(M) S. pneumoniae strain SP160. Mice were made neutropenic by pre-treatment with cyclophosphamide and infected with SP160 via intranasal administration. Mice were dosed orally with 30 mg/kg compound at 2 and 12 hours post-infection. At 24 hours following initiation of treatment, mice were euthanized and bacterial reduction in the lung was quantified by plating lung homogenates. Data was recorded as log10 reduction in lung colony forming units versus an untreated control group.

[3] = Pharmacokinetic studies in rats; assay type: in vivo; settings: rat, plasma, male Sprague Dawley rats, fasted; for clearance: read-out: Cl, IV Rat PK; for bioavailability: oral 10 mg/kg vs IV 1 mg/kg, read-out: % F (oral bioavailability), Oral Rat PK; for Cmax: read-out: Cmax, IV Rat PK
Procedure: Pharmacokinetic Studies in Rats Test compounds were evaluated in fasted (no food for 18 hours prior to dosing) male Sprague Dawley rats (3 animals per group) by administration of 1 mg/kg intravenously into the jugular vein and […] by oral gavage. Ten plasma samples were drawn for each dosing route up to 24 hours into heparin-coated vacutainer tubes. The plasma concentrations of the test compounds were quantified by LC/MS/MS using an internal standards. WinNONLIN was used to determine PK parameters ±standard deviation (AUC, Cmax, CL, Vss and % oral bioavailabilty (% F) and are set forth in Table F.

[4] = test system: Uropathogenic E. coli EC200; test: Murine kidney infection model, uropathogenic E. coli EC200; assay type: in vivo; settings: BALB/c mice; for log reduction at 2 mg/kg: PO 2 mg/kg at 12 and 24 hours post infection; for EC200 UTI IV, log10 reduction in CFUs in the kidney versus untreated controls: @ 5 mpk in cells (column head 3 mg/kg)
Procedure: (§1) Kidney Infection Models for Uropathogenic E. coli EC200 and K. pneumoniae ESBL Isolate KP453
Compounds were tested in a BALB/c murine kidney infection model challenged with tetracycline-resistant E. coli strain uropathogenic […] via intravenous injection. […] For IV administration test compound was dosed at 3 mg/kg. Thirty-six hours following initiation of treatment, mice were euthanized and bacterial reduction in the kidney was quantified by plating kidney homogenates. Results are reported in Table D as log10 reduction in colony forming units (CFUs) in the kidney versus untreated controls (receiving no test compound).

[5] = test system: K. pneumoniae ESBL Isolate KP453; test: Murine kidney infection model, K. pneumoniae ESBL isolate KP453; assay type: in vivo; settings: BALB/c mice; for log reduction at 50 mg/kg: Klebsiella pneumoniae, po, 36 h, PO 50 mg/kg at 9 and 24 hours post infection, read-out: KP453 ESBL UTI PO, log10 reduction in CFUs in the kidney versus untreated controls; for KP453 ESBL UTI IV, log10 reduction in CFUs in the kidney versus untreated controls: IV 20 mg/kg
Procedure: as §1
Compounds were also tested in BALB/c murine kidney infection model challenged with levofloxacin-resistant, ESBL^+ strain KP453 via intravenous injection with 2% carageenen. At 9 and 24 hours post infection mice were treated orally with 50 mg/kg of test compound. For IV administration, test compounds were dosed at 20 mg/kg. At 36 hours following initiation of treatment, mice were euthanized and bacterial reduction in the kidney was quantified by plating homogenates. Results are reported in Table D as log10 reduction in colony forming units (CFUs) in the kidney versus untreated controls (receiving no test compound).

[6] = test system: tetracycline-resistant tet(M) MRSA strain SA191; test: Neutropenic respiratory infection model for MRSA (murine lung infection); assay type: in vivo, Staphylococcus aureus; settings: neutropenic BALB/c mice, SA191 intranasal, 50 mg/kg orally at 2 and 12 hours, lung CFU at 24 hours
Procedure: Neutropenic Respiratory Infection Model for MRSA
Compounds were tested in a neutropenic BALB/c murine model of lung infection challenged with a tetracycline-resistant tet(M) MRSA strain SA191 infected via intranasal administration. At 2 and 12 hours mice were dosed orally with 50 mg/kg compound. At 24 hours following initiation of treatment, mice were euthanized and bacterial reduction in the lung was quantified by plating lung homogenates. Data was recorded as log10 reduction in lung colony forming units versus an untreated control group.

Monkey PK = assay type: in vivo; settings: cynomolgus monkey, plasma, cynomolgus monkeys; for bioavailability: PO 10 mg/kg vs IV 1 mg/kg, read-out: % F (oral bioavailability), monkey
Procedure: Compounds S24-9-23 and S16-10-161 were evaluated in 3 non-naïve cynomolgus monkeys. Each animal received a single IV dose of 1 mg/kg and after a 7-day washout, received a single PO dose of 10 mg/kg. Nine to ten plasma samples were drawn for each dosing route up to 24 hours into heparin-coated vacutainer tubes. Dose formulations were verified with a 5-point calibration curve. The plasma concentration of the compound was quantified by LC/MS/MS using an internal standard.

[7] = PO, read-out: SA Smith septicemia PD50 PO
[8] = IV 1 mg/kg, read-out: AUC, IV Rat PK
[9] = oral gavage 10 mg/kg, read-out: AUC, Oral Rat PK
[10] = Escherichia coli, po, 36 h, read-out: EC200 UTI PO, log10 reduction in CFUs in the kidney versus untreated controls
[11] = single IV dose of 1 mg/kg, read-out: AUC, IV, monkey
[12] = single PO dose of 10 mg/kg, read-out: AUC, oral, monkey
[13] = single PO dose of 10 mg/kg, read-out: Cmax, oral, monkey

SMILES | responders at 3 mg/kg [1] | responders at 30 mg/kg [1] | Bacterial Reduction in the Lung (Log10 change from 24 hour control) [2] | clearance ([3]; IV 1 mg/kg) | bioavailability [3] | AUC [3, 8] | Cmax ([3]; IV 1 mg/kg) | AUC [3, 9] | log reduction at 50 mg/kg [5] | log reduction at 2 mg/kg [4, 10] | Bacterial Reduction in the Lung (Log10 change from 24 hour control) [6] | EC200 UTI IV, log10 reduction in CFUs in the kidney versus untreated controls [4] | KP453 ESBL UTI IV, log10 reduction in CFUs in the kidney versus untreated controls [5] | further results
CCC(C)(C)N(C)Cc1cc(O)c2c(c1F)C[C@H]1C[C@H]3[C@H](N(C)C)C(O)=C(C(N)=O)C(=O)[C@@]3(O)C(O)=C1C2=O [Compound S2-4-28] | 100% | 100% | −0.06 Log10 | 17.6 mL/min/kg | 44.7% | 970 ng·h/mL | 170 ng/mL | 4380 ng·h/mL | – | – | – | – | – | ED50 ([1]; IV, read-out: SA Smith septicemia PD50 IV): 0.62 mg/kg; ED50 [1, 7]: 3 mg/kg
CN(C)[C@@H]1C(O)=C(C(N)=O)C(=O)[C@@]2(O)C(O)=C3C(=O)c4c(O)cc(CN5CCCCCC5)c(Cl)c4C[C@H]3C[C@@H]12 [Compound S15-13-188] | 100% | 100% | −0.22 Log10 | – | – | – | – | – | 1.55 | – | – | – | – | ED50 [1, 7]: 8.3 mg/kg; log reduction at 3 mg/kg ([4]; Escherichia coli, po, 36 h, PO @ 3 mpk, read-out: EC200 UTI PO, log10 reduction in CFUs in the kidney versus untreated controls): 3.48
C[C@H]1CC[C@H](C)N1Cc1cc(O)c2c(c1Cl)C[C@H]1C[C@H]3[C@H](N(C)C)C(O)=C(C(N)=O)C(=O)[C@@]3(O)C(O)=C1C2=O [Compound S15-13-223] | 100% | 100% | −0.12 Log10 | – | – | – | – | – | 1.32 | 2.27 | – | – | – | –
C[C@@H](NCc1cc(O)c2c(c1N(C)C)C[C@H]1C[C@H]3[C@H](N(C)C)C(O)=C(C(N)=O)C(=O)[C@@]3(O)C(O)=C1C2=O)C(C)(C)C [Compound S16-10-79] | 100% | 100% | −4.31 Log10 | – | – | – | – | – | – | – | −1.27 Log10 | – | – | –
CN(C)c1c(CN2CCCCC2)cc(O)c2c1C[C@H]1C[C@H]3[C@H](N(C)C)C(O)=C(C(N)=O)C(=O)[C@@]3(O)C(O)=C1C2=O [Compound S16-10-161] | 100% | 100% | – | 12.8 mL/min/kg | 31.6% | 1310 ng·h/mL | 689 ng/mL | 4440 ng·h/mL | 1.04 | 1.85 | – | @ 5 mpk −3.99 log10 | −3.09 log10 | bioavailability (Monkey PK): 42.7%; clearance (Monkey PK; single IV dose of 1 mg/kg, read-out: Cl, IV, monkey (printed C1, mL/hr) (converted)): 184 mL/h; Vd (Monkey PK; single IV dose of 1 mg/kg, read-out: Vdss, IV, monkey (unit inferred)): 4.05 L/kg; AUC (Monkey PK; [11]): 5680 ng·h/mL; Cmax (Monkey PK; single IV dose of 1 mg/kg, read-out: Cmax, IV, monkey (unit inferred)): 861 ng/mL; AUC (Monkey PK; [12]): 26000 ng·h/mL; Cmax (Monkey PK; [13]): 982 ng/mL
COc1c(CN2CCCCC2)cc(O)c2c1C[C@H]1C[C@H]3[C@H](N(C)C)C(O)=C(C(N)=O)C(=O)[C@@]3(O)C(O)=C1C2=O [Compound S24-9-23] | 100% | 100% | – | 9.26 mL/min/kg | 12.2% | 1830 ng·h/mL | 795 ng/mL | 2230 ng·h/mL | 2.93 | 2.99 | – | @ 5 mpk −4.34 log10 | −2.95 log10 | bioavailability (Monkey PK): 36.8%; clearance (Monkey PK; single IV dose of 1 mg/kg, read-out: Cl, IV, monkey (converted)): 2.4 mL/min/kg; Vd (Monkey PK; single IV dose of 1 mg/kg, read-out: Vdss, IV, monkey): 3.4 L/kg; AUC (Monkey PK; [11]): 7070 ng·h/mL; Cmax (Monkey PK; single IV dose of 1 mg/kg, read-out: Cmax, IV, monkey): 1370 ng/mL; AUC (Monkey PK; [12]): 22800 ng·h/mL; Cmax (Monkey PK; [13]): 1350 ng/mL
CN(C)[C@@H]1C(O)=C(C(N)=O)C(=O)[C@@]2(O)C(O)=C3C(=O)c4c(O)c(N)c(CN5CCCCCC5)c(Cl)c4C[C@H]3C[C@@H]12 [Compound S29-2-4] | 100% | 83% | – | – | – | – | – | – | – | – | −1.29 Log10 | – | – | –
COc1c(CN(C)C(C)(C)C2CC2)cc(O)c2c1C[C@H]1C[C@H]3[C@H](N(C)C)C(O)=C(C(N)=O)C(=O)[C@@]3(O)C(O)=C1C2=O [S24-9-21] | 100% | 100% | −0.89 Log10 | – | – | – | – | – | 2.16 | 2.3 | −1.98 Log10 | @ 5 mpk −4.09 log10 | −2.87 log10 | –

From patent US9315451B2, “Tetracycline compounds” (priority 2009, dated 2016)
